Assay results published in patent US7906486B2, “Method of treating or preventing tissue deterioration, injury or damage due to disease of mucosa” (SciClone Pharmaceuticals, Inc., priority 2007, dated 2011).
Where “and” joins values, the source holds several entries; their conditions need not be identical. Equal values may be shown once.

Key:
[1] = test system: oral mucositis induced by acute radiation (40 Gy, left buccal cheek pouch); assay: Oral mucositis induced by acute radiation in hamsters, mucositis scoring (Example 2, SCI-02); assay type: in vivo, Syrian Golden Hamsters; parameters: key to peak mean mucositis score: 0 = normal to 5 = severe ulceration (visual scale); key to Mucositis score: 0: Pouch completely healthy. No erythema or vasodilation.; 1: Light to severe erythema and vasodilation. No erosion of mucosa.; 2: Severe erythema and vasodilation. Erosion of superficial aspects of mucosa leaving denuded areas. Decreased stippling of mucosa.; 3: Formation of off-white ulcers in one or more places. Ulcers may have a yellow/gray due to pseudomembrane. Cumulative size of ulcers should equal about ¼ of the pouch. Severe erythema and vasodilation.; 4: Cumulative seize of ulcers should equal about ½ of the pouch. Loss of pliability. Severe erythema and vasodilation.; 5: Virtually all of pouch is ulcerated. Loss of pliability (pouch can only partially be extracted from mouth); conditions: for % Days >=3 / Days <3 / Days >=3 / Chi Sq v control: sc, days -1 to 20; for Mucositis score: Group 2 (SCV-07 100 μg/kg once daily, days -1 to 20), individual animals, two scores per animal; for Days >=3: animal days with mucositis score of three or more; for Chi Sq v control: days with score >=3
Text: The acute radiation model in hamsters, developed by the Principle Investigator, has proven to be an accurate, efficient and cost-effective technique to provide a preliminary evaluation of anti-mucositis compounds. The course of mucositis in this model is well defined and results in peak scores approximately 14-16 Days following radiation. The acute model has little systemic toxicity, resulting in few hamster deaths, thus permitting the use of smaller groups (N=7-8) for initial efficacy studies. It has also been used to study specific mechanistic elements in the pathogenesis of mucositis. Molecules that show efficacy in the acute radiation model may be further evaluated in the more complex models of fractionated radiation, chemotherapy, or concomitant therapy.
In this study, an acute radiation dose of 40 Gy on day 0 was administered. Clinically significant mucositis was observed on days 12 through 28.
Forty (40) Syrian Golden Hamsters were given an acute radiation dose of 40 Gy directed to their left buccal cheek pouch on day 0. Test material SCV-07 was given by sub-cutaneous injection at 100 μg/kg or 1 mg/kg once or twice daily. Dosing began one day before radiation (day −1) and continued until day 20. Mucositis was evaluated clinically starting on day 6, and continuing on alternate days until day 28.
The grade of mucositis was scored, beginning day 6, and for every second day thereafter, through and including day 28. The effect on mucositis of each drug treatment compared to placebo was assessed according to the following parameters:
On each evaluation day, the number of animals with a blinded mucositis score of ≧3 in each drug treatment group was compared to the control group. Differences were compared on a cumulative basis and statistical significance was determined by chi-square analysis. Efficacy, in this analysis, is defined by a significant reduction in the number of days that a group of animals had ulcerations (scores ≧3) when compared to the control group. This same test was also used to evaluate differences between different drug treatment groups.
For each evaluation day the scores of the control group were compared to those of the treated groups using non-parametric rank sum analysis. Treatment success was considered as a statistically significant lowering of scores in the treated group on 2 or more days from day 6 to day 28.
Forty Syrian Golden Hamsters were divided into five (5) groups of eight (8) animals each. All animals received a single dose of acute radiation of 40 Gy directed to their left buccal cheek pouch on day 0. This was accomplished by anesthetizing the animals and everting the left buccal pouch, while protecting the rest of the animals with a lead shield. Test materials were given by sub-cutaneous injection once daily as detailed in Table 5. Mucositis was evaluated clinically starting on Day 6, and continuing on alternate days until day 28.
Mucositis was induced using a standardized acute radiation protocol. A single dose of radiation (40 Gy/dose) was administered to all animals on day 0. Radiation was generated with a 160 kilovolt potential (15-ma) source at a focal distance of 30 cm, hardened with a 0.35 mm Cu filtration system. Irradiation targeted the left buccal pouch mucosa at a rate of 3.2 Gy/minute. Prior to irradiation, animals were anesthetized with an intraperitoneal injection of Ketamine (160 mg/kg) and Xylazine (8 mg/kg). The left buccal pouch was everted, fixed and isolated using a lead shield to protect all other parts of the hamster's body.
The mucositis score, weight change and survival were measured throughout the study as described above. For the evaluation of mucositis, the animals were anesthetized with an inhalation anesthetic, and the left pouch everted. Mucositis was scored visually by comparison to a validated photographic scale, ranging from 0 for normal, to 5 for severe ulceration (clinical scoring). In descriptive terms, this scale is defined as follows: […]

spleen lymphocytes = conditions: cited from earlier work
[2] = test system: 5-FU-immune-suppressed animals; conditions: in vivo; cited from earlier work
[3] = test system: immunization with sheep red blood cells; conditions: in vivo; cited from earlier work
[4] = 100 ug/kg once daily from day -1 to 20
[5] = 1 mg/kg once daily from day -1 to 20
[6] = 1 mg/kg twice daily from day -1 to 20

N[C@H](CCC(=O)N[C@@H](Cc1c[nH]c2ccccc12)C(=O)O)C(=O)O [SCV-07, γ-D-glutamyl-L-tryptophan]
day of peak mean mucositis score [1, 4]: 16 | peak mean mucositis score [1, 4]: 2.2 | peak mean mucositis score ([1]; 100 ug/kg twice daily from day -1 to 20): 2.5 | % Days >=3 ([1]; 100 ug/kg, bid): 8.9% | Days <3 ([1]; 100 ug/kg, bid): 175 | % Days >=3 ([1]; 100 ug/kg, qd): 6.3% | Days <3 ([1]; 100 ug/kg, qd): 180 | day of peak mean mucositis score [1, 5]: 14 | peak mean mucositis score [1, 5]: 2.9 | improvement in daily mucositis scores relative to controls (Mann-Whitney rank sum) ([1]; 1 mg/kg once daily on days -1 to 20, any day of the study): no significant improvement in mucositis on any day | day of peak mean mucositis score [1, 6]: 14 | peak mean mucositis score [1, 6]: 2.6 | % Days >=3 ([1]; 1 mg/kg, bid): 12.5% | Days <3 ([1]; 1 mg/kg, bid): 168 | % Days >=3 ([1]; 1 mg/kg, qd): 28.1% | Days <3 ([1]; 1 mg/kg, qd): 138 | Mucositis score ([1]; day 6): 1 (6×) and 0 (2×) | Mucositis score ([1]; day 8): 1 | Mucositis score ([1]; day 10): 2 (4×) and 1 (4×) | Mucositis score ([1]; day 12): 2 (7×) and 3 | Mucositis score ([1]; day 14): 2 | Mucositis score ([1]; day 16): 2 | Mucositis score ([1]; day 18): 2 (5×) and 3 (2×) and 1 | Mucositis score ([1]; day 20): 2 (6×) and 3 (2×) | Mucositis score ([1]; day 22): 1 (2×) and 2 (7×) | Mucositis score ([1]; day 24): 1 (3×) and 2 (6×) | Mucositis score ([1]; day 26): 1 (2×) and 2 (7×) | Mucositis score ([1]; day 28): 1 (7×) and 2 (2×) | Days >=3 ([1]; 100 ug/kg, bid): 17 | Days >=3 ([1]; 100 ug/kg, qd): 12 | Days >=3 ([1]; 1 mg/kg, bid): 24 | Days >=3 ([1]; 1 mg/kg, qd): 54 | P, number of animal days with a score of 3 or higher, 100 ug/kg once daily vs 1 mg/kg twice daily ([1]; chi-squared test, no statistically significant difference): 0.054 | Chi Sq v control ([1]; 100 ug/kg, bid): 21.4010 | Chi Sq v control ([1]; 100 ug/kg, qd): 27.828 | Chi Sq v control ([1]; 1 mg/kg, bid): 12.7360 | Chi Sq v control ([1]; 1 mg/kg, qd): 0.0000 | IL-2 receptor expression by spleen lymphocytes (spleen lymphocytes; Con-A-induced): increases | Con-A-induced interleukin-2 (IL-2) production (spleen lymphocytes; spleen lymphocytes): increases | immunostimulatory effect on 5-FU-immune-suppressed animals [2]: strong immunostimulatory effect | immunostimulatory effect in a model of immunization with sheep red blood cells [3]: strong immunostimulatory effect
